Activity calls are given as the source filed them. No rule for the calls is given here.
Target: C-X-C chemokine receptor type 6 (Homo sapiens) (UniProt O00574)
Assay: potency against CXCR6 with APJ panel – cell-based, beta-arrestin, DiscoveRx, uHTS hits, dose response (AID 624129)
Conditions: CXCR6 beta-arrestin (DiscoveRx) antagonist cell assay; for outcome: CXCR6, dose range 1; for inhibition: CXCR6, run 2, dose range 1, at 79 µM (top of the series)
[1] = CXCR6, dose range 1, mean IC50 across replicates

Chain of C-X-C chemokine receptor type 6 (Homo sapiens) (O00574 whole entry, looked up): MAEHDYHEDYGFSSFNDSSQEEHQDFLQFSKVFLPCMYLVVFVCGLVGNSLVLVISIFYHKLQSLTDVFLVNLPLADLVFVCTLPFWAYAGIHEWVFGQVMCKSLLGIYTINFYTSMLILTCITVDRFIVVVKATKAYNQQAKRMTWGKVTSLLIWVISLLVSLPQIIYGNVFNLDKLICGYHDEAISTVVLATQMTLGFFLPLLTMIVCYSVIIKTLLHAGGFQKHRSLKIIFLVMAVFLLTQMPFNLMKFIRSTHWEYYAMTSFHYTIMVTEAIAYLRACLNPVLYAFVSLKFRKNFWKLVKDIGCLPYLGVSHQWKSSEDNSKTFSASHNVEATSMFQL

Structure (SMILES) | outcome | IC50 [1] [µM] | IC50 (CXCR6, run 1, dose range 2) [µM] | inhibition [%] | IC50 (CXCR6, run 2, dose range 2) [µM]
O=C1CC(Sc2nnnn2-c2ccccc2)C(=O)N1c1cccc(Cl)c1 (stereo not given) | inactive | 11.9 | 11.7 | 112 | 12.2
CCC1=NN(C(=O)c2ccc([N+](=O)[O-])cc2)C(O)(c2ccccc2)C1 (stereo not given) | inactive | 44.8 | 25.2 | 91.7 | 64.4
COc1cc(C2C(C#N)=C(N)Oc3n[nH]c(-c4cccnc4)c32)cc(Br)c1O (stereo not given) | inactive | 28.7 | 24.6 | 86.6 | 32.8
Cc1ccccc1NC(=S)NNc1ncc(C(F)(F)F)cc1Cl | inactive | 15 | 16.4 | 83.5 | 13.7
COc1ccc(/C=C2/CCC(CN3CCOCC3)C2=O)cc1 (stereo not given) | inactive | 14.7 | 14.3 | 112 | 15.2
Cc1ccc(C(=O)NNC(=S)NC(=O)c2ccccc2)cc1 | inactive | 20.1 | 18 | 84.4 | 22.2
Cc1ccc(P(=O)(c2ccc(C)cc2)[C@@H](NC(c2ccccc2)c2ccccc2)c2ccccc2)cc1 | inactive | 19.6 | 17 | 82.4 | 22.1
Cc1ccc(NC(=O)c2nc(S(=O)(=O)Cc3ccccc3C)ncc2Cl)cc1C | inactive | 13.7 | 13 | 104 | 14.3
Cn1cnc([N+](=O)[O-])c1S(=O)(=O)c1cccc(Cl)c1 | inactive | 12.1 | 12.4 | 112 | 11.9
CS(=O)(=O)c1ccc(C(=O)OCC(=O)N2CCN(CCC3CCCCC3)CC2)cc1[N+](=O)[O-] | inactive | 11.2 | 10.6 | 111 | 11.8
O=C1C=CC(=O)N1CCNc1ncc(C(F)(F)F)cc1Cl | inactive | 15.5 | 15.7 | 110 | 15.2
O=C(NNC(=O)c1cc(-c2ccccc2)nn1-c1ccccc1)c1ccccc1 | inactive | 11.5 | 10.4 | 75 | 12.6
Cn1c(=O)[nH]c(=O)c2c1nc(Sc1nc3ccccc3s1)n2Cc1ccccc1 | inactive | 21.9 | 18.3 | 77.5 | 25.6
COc1cc(/C=C/C(O)=C/C(=O)/C=C/c2ccc(O)cc2)ccc1O | inactive | 39.4 | 40.1 | 98.4 | 38.7
CCCSc1cc(NCCOC(=O)CCC)c([N+](=O)[O-])c2nonc12 | inactive | 17.7 | 17.6 | 112 | 17.9
Nc1cccc2c1C(=O)N(C(=O)/C=C/c1cccc(F)c1)C2=O | inactive | 51 | 65.1 | 98.3 | 37
COc1cccc(-c2nnc(NC(=O)c3ccc(Cl)s3)o2)c1 | inactive | 14.3 | 12.5 | 67.6 | 16.1
Cc1cc2nc(N3C(=O)CNC3=S)sc2cc1C | inactive | 11.6 | 8.25 | 89.4 | 14.9
COC(=O)c1cc([N+](=O)[O-])c(-n2cncn2)c([N+](=O)[O-])c1 | inactive | 16.2 | 13.9 | 113 | 18.4
C=C1CCN([C@@H](Cc2ccccc2)C(=O)NCCC(C)C)S(=O)(=O)c2ccccc21 | inactive | 15.2 | 17.1 | 69.3 | 13.3
Cc1ccc(NC(=S)NNc2ncc(C(F)(F)F)cc2Cl)cc1 | inactive | 13.5 | 10.4 | 105 | 16.6
O=[N+]([O-])c1ccc(N/N=C/c2sc(N3CCOCC3)nc2-c2ccccc2)c(S(=O)(=O)Nc2ccc(Cl)cc2)c1 | inactive | 55.1 | 72.8 | 99.6 | 37.3
Cn1c(=O)n(C)c2cc([N+](=O)[O-])c(N3CCN(C(=O)c4cccc(Cl)c4)CC3)cc21 | inactive | 11.2 | 11.3 | 60.7 | 11
COC(=O)C1=C(C(=O)OC)C2OC1c1cc3ccccc3cc12 | inactive | 14.5 | 12.3 | 112 | 16.7

Structure (SMILES) | outcome | IC50 [1] [µM] | IC50 (CXCR6, run 1, dose range 2) [µM] | inhibition [%] | IC50 (CXCR6, run 2, dose range 2) [µM]
CCc1nnc(NS(=O)(=O)c2ccc(Nc3ccc([N+](=O)[O-])c4nonc34)cc2)s1 | inactive | 34.1 | 29.8 | 92.2 | 38.4
FC(F)(F)c1cnc(NNC(=S)Nc2cccnc2)c(Cl)c1 | inactive | 21.1 | 11.8 | 107 | 30.4
COC(=O)c1cc(CSc2nc3ccc(C)cc3[nH]2)oc1C | inactive | 32.9 | 28.7 | 66.8 | 37.1
O=C1c2cccc3c([N+](=O)[O-])ccc(c23)C(=O)N1Cc1cccnc1 | inactive | 27.8 | 25 | 110 | 30.5
Cc1[nH]n2c(=O)cc(-c3ccc([N+](=O)[O-])cc3)nc2c1-c1ccccc1 | inactive | 14.6 | 13.9 | 81.6 | 15.3
CCOc1cc(/C=C2\C(=O)N(c3cccc(C(F)(F)F)c3)C(=O)c3ccccc32)ccc1O | inactive | 49.2 | 49.2 | 81 | > 79
Cn1cnc([N+](=O)[O-])c1S(=O)(=O)c1ccc(Cl)cc1 | inactive | 13.9 | 14.5 | 110 | 13.3
C[n+]1ccc(/C=N/Nc2nc(Cl)c(C#N)c(Cl)c2Cl)cc1 | inactive | 44.8 | 23.6 | 90.5 | 66
CN(C)CC1CC/C(=C\c2ccc(O)cc2)C1=O (stereo not given) | inactive | 14 | 14.3 | 111 | 13.8
O=C(C(=Cc1ccc(F)cc1)C(=O)c1ccccc1)c1ccccc1 | inactive | 13.7 | 11.8 | 112 | 15.5
COC(=O)CSc1[nH]c2ccc(Br)cc2c1[N+](=O)[O-] | inactive | 42.2 | 42.2 | 23.1 | > 79
CCOc1ccc(Nc2ccc([N+](=O)[O-])c3nonc23)cc1 | inactive | 38.8 | 33.7 | 81.7 | 43.9
COC(=O)c1ccc(C)c(-n2c(=O)n(Cc3ccccc3)c(=O)c3[nH]cnc32)c1 | inactive | 12.9 | 11.6 | 73 | 14.1
O=[N+]([O-])/C=C/c1ccc2c(ccn2Cc2ccccc2)c1 | inactive | 11.3 | 9.06 | 111 | 13.5
CCCC/C=C1/CCC(CN(C)C)C1=O (stereo not given) | inactive | 22.6 | 22.3 | 110 | 22.8
O=C(Nc1ccccc1Oc1ccccc1)[C@@H]1O[C@H](CO)[C@H](O)[C@H](O)[C@H]1O | inactive | 14.2 | 12.4 | 99.6 | 15.9
Cc1cccc(Cc2cnc(N3C(=N)SC(C)C3=O)s2)c1 (stereo not given) | active | 7.79 | 7.79 | 41.4 | > 79
CCCNC(=O)c1nnsc1S(=O)(=O)c1ccc(Cl)cc1 | inactive | 14.1 | 13.8 | 112 | 14.3
O=[N+]([O-])c1ccc(N/N=C/c2sc(N3CCOCC3)nc2-c2ccccc2)c(S(=O)(=O)Nc2ccccc2Cl)c1 | inactive | 27.6 | 27.6 | 95.7 | > 79
FC(F)(F)c1cnc(NNC(=S)Nc2ccccc2)c(Cl)c1 | inactive | 14.9 | 12 | 112 | 17.8
C=CCOc1ccc(C=NNc2ccc(S(=O)(=O)Nc3ccccc3C(=O)O)cc2[N+](=O)[O-])cc1OC | inactive | 28.8 | 29.4 | 98.5 | 28.2
CN(c1ccccc1)c1ccc(/C=C/[N+](=O)[O-])cc1 | inactive | 11.4 | 10.3 | 114 | 12.5
COc1ccc2nc(-n3c(O)c(C4=c5ccccc5=NC4=O)[nH]c3=S)sc2c1 | inactive | 30.4 | 26.5 | 109 | 34.3
CCCCC(=O)NC(=S)Nc1ccccc1C(=O)Nc1ccccc1 | inactive | 11.4 | 10.5 | 79.2 | 12.3

Reference: PubChem BioAssay AID624129 (Sanford-Burnham Center for Chemical Genomics, 2012)
